Assay results reported in ChEMBL document CHEMBL3885861, “Open TG-GATES”.

Species on record: Rattus norvegicus
Assay: Open TG-GATES - Regimen: Single
Type: toxicity, organism-based, Sprague-Dawley
Design: regimen Single, gender Male, age 6 weeks
Settings: in vivo, po, 3 mg/kg, route gavage, dose level Middle; for APTT / Bas / Eos / Fbg / Hb / Ht / Lym / MCH / MCHC / MCV / Mono / Neu / PT / Plat / RBC / Ret / WBC: tissue Blood; for KIDNEY_L / KIDNEY_R / KIDNEY_TOTAL: tissue Kidney; for LIVER: tissue Liver; for A/G / ALP / ALT / AST / BUN / CRE / Ca / Cl / DBIL / GLC / IP / K / LDH / Na / PL / RALB / TBIL / TC / TG / TP / gamma-GTP: tissue Plasma

CN1C(C(=O)Nc2ccccn2)=C(O)c2sc(Cl)cc2S1(=O)=O [LORNOXICAM]
TERMINAL_BW (3 h): 224.5 g | APTT (3 h): 20.3 s | Bas (3 h): 0.6% | Eos (3 h): 1% | Fbg (3 h): 223.8 mg/dL | Hb (3 h): 13.2 g/dL | Ht (3 h): 40% | Lym (3 h): 75.2% | MCH (3 h): 21 pg | MCHC (3 h): 32.9% | MCV (3 h): 63.8 fL | Mono (3 h): 3.4% | Neu (3 h): 19.6% | PT (3 h): 11.7 s | Plat (3 h): 123.9 x10_4/uL | RBC (3 h): 626.4 x10_4/ul | Ret (3 h): 7.2% | WBC (3 h): 135.4 x10_2/uL | KIDNEY_L (3 h): 1 g | KIDNEY_R (3 h): 1 g | KIDNEY_TOTAL (3 h): 2 g | LIVER (3 h): 10.3 g | A/G (3 h): 1.6 | ALP (3 h): 1026.6 IU/L | ALT (3 h): 45.4 IU/L | AST (3 h): 81 IU/L | BUN (3 h): 12.4 mg/dL | CRE (3 h): 0.3 mg/dL | Ca (3 h): 10.8 mg/dL | Cl (3 h): 104 meq/L | DBIL (3 h): 0.074 mg/dL | GLC (3 h): 197 mg/dL | IP (3 h): 9 mg/dL | K (3 h): 4.1 meq/L | LDH (3 h): 163.8 IU/L | Na (3 h): 141.8 meq/L | PL (3 h): 152.8 mg/dL | RALB (3 h): 3.5 g/dL | TBIL (3 h): 0.1 mg/dL | TC (3 h): 82.4 mg/dL | TG (3 h): 73.8 mg/dL | TP (3 h): 5.7 g/dL | gamma-GTP (3 h): 1 IU/L | TERMINAL_BW (6 h): 222.9 g | APTT (6 h): 18.9 s | Bas (6 h): 0.6% | Eos (6 h): 0.8% | Fbg (6 h): 223.6 mg/dL | Hb (6 h): 13.4 g/dL | Ht (6 h): 40.2% | Lym (6 h): 78.4% | MCH (6 h): 21.3 pg | MCHC (6 h): 33.4% | MCV (6 h): 63.7 fL | Mono (6 h): 3.4% | Neu (6 h): 16.8% | PT (6 h): 12.3 s | Plat (6 h): 123.6 x10_4/uL | RBC (6 h): 631.2 x10_4/ul | Ret (6 h): 7.2% | WBC (6 h): 108.8 x10_2/uL | KIDNEY_L (6 h): 1 g | KIDNEY_R (6 h): 1 g | KIDNEY_TOTAL (6 h): 1.9 g | LIVER (6 h): 10 g | A/G (6 h): 1.7 | ALP (6 h): 948.8 IU/L | ALT (6 h): 38.2 IU/L | AST (6 h): 72.8 IU/L | BUN (6 h): 11.8 mg/dL | CRE (6 h): 0.4 mg/dL | Ca (6 h): 10.6 mg/dL | Cl (6 h): 104 meq/L | DBIL (6 h): 0.074 mg/dL | GLC (6 h): 193.6 mg/dL | IP (6 h): 8.6 mg/dL | K (6 h): 4.1 meq/L | LDH (6 h): 159 IU/L | Na (6 h): 140.6 meq/L | PL (6 h): 134.8 mg/dL | RALB (6 h): 3.5 g/dL | TBIL (6 h): 0.2 mg/dL | TC (6 h): 75 mg/dL | TG (6 h): 64.4 mg/dL | TP (6 h): 5.6 g/dL | gamma-GTP (6 h): 0.8 IU/L | TERMINAL_BW (9 h): 223.4 g | APTT (9 h): 18.6 s | Bas (9 h): 0.4% | Eos (9 h): 0.8% | Fbg (9 h): 220.2 mg/dL | Hb (9 h): 13.2 g/dL | Ht (9 h): 39.2% | Lym (9 h): 71.2% | MCH (9 h): 21.6 pg | MCHC (9 h): 33.7% | MCV (9 h): 64.1 fL | Mono (9 h): 3.4% | Neu (9 h): 24% | PT (9 h): 12.2 s | Plat (9 h): 120.6 x10_4/uL | RBC (9 h): 611.6 x10_4/ul | Ret (9 h): 6.8% | WBC (9 h): 110.6 x10_2/uL | KIDNEY_L (9 h): 1 g | KIDNEY_R (9 h): 1 g | KIDNEY_TOTAL (9 h): 2 g | LIVER (9 h): 9.1 g | A/G (9 h): 1.6 | ALP (9 h): 857.8 IU/L | ALT (9 h): 41.2 IU/L | AST (9 h): 69.8 IU/L | BUN (9 h): 10.8 mg/dL | CRE (9 h): 0.3 mg/dL | Ca (9 h): 10.5 mg/dL | Cl (9 h): 103.2 meq/L | DBIL (9 h): 0.064 mg/dL | GLC (9 h): 190 mg/dL | IP (9 h): 9.7 mg/dL | K (9 h): 4.1 meq/L | LDH (9 h): 168.6 IU/L | Na (9 h): 141.2 meq/L | PL (9 h): 125.4 mg/dL | RALB (9 h): 3.2 g/dL | TBIL (9 h): 0.1 mg/dL | TC (9 h): 66.2 mg/dL | TG (9 h): 54.4 mg/dL | TP (9 h): 5.3 g/dL | gamma-GTP (9 h): 1 IU/L | TERMINAL_BW (24 h): 235.4 g | APTT (24 h): 20 s | Bas (24 h): 0.2% | Eos (24 h): 0.2% | Fbg (24 h): 261.6 mg/dL | Hb (24 h): 12.8 g/dL | Ht (24 h): 39% | Lym (24 h): 60.2% | MCH (24 h): 20.8 pg | MCHC (24 h): 32.9% | MCV (24 h): 63.5 fL | Mono (24 h): 3.8% | Neu (24 h): 33.8% | PT (24 h): 12.1 s | Plat (24 h): 122.4 x10_4/uL | RBC (24 h): 614.2 x10_4/ul | Ret (24 h): 6.8% | WBC (24 h): 136.9 x10_2/uL | KIDNEY_L (24 h): 1 g | KIDNEY_R (24 h): 1 g | KIDNEY_TOTAL (24 h): 2.1 g | LIVER (24 h): 11.4 g | A/G (24 h): 1.5 | ALP (24 h): 892.2 IU/L | ALT (24 h): 39.8 IU/L | AST (24 h): 67.6 IU/L | BUN (24 h): 13.2 mg/dL | CRE (24 h): 0.4 mg/dL | Ca (24 h): 10.5 mg/dL | Cl (24 h): 104.8 meq/L | DBIL (24 h): 0.078 mg/dL | GLC (24 h): 203.8 mg/dL | IP (24 h): 7.8 mg/dL | K (24 h): 4.2 meq/L | LDH (24 h): 207.8 IU/L | Na (24 h): 141.8 meq/L | PL (24 h): 133.2 mg/dL | RALB (24 h): 3.1 g/dL | TBIL (24 h): 0.1 mg/dL | TC (24 h): 68.2 mg/dL | TG (24 h): 74.4 mg/dL | TP (24 h): 5.1 g/dL | gamma-GTP (24 h): 0.8 IU/L
